Test results: publication PMC9694197, “Undescribed Metabolites from an Actinobacteria Acrocarpospora punica and Their Anti-Inflammatory Activity” (Molecules, 2022)
Entries after “also recorded” stand apart in the source; their conditions may differ. Like-named read-outs stand apart in the source and are kept apart here.

What was measured:
Format in all cases: cell-based, mouse
[1] = Cell viability, MTT assay; conditions: mouse, RAW 264.7 macrophage cells; RAW 264.7, MTT assay
Protocol: (§1) The six isolates, in sufficient amounts, were evaluated by examining their inhibitory effects on LPS-induced inducible nitric oxide synthase (iNOS)-dependent NO production in the murine macrophage cell line RAW 264.7 (Table 5). […] (e) Compounds 3 and 6 belong to liner azaphilone skeleton and naphthenic derivatives, respectively; compound 3 has better anti-inflammatory activity than 6. […] (g) The cytotoxic effects were measured using an MTT assay.
(§2) Mouse macrophage cell line (RAW 264.7) was obtained from the Bioresource Collection and Research Center (BCRC 60001) and cultured at 37 °C in Dulbecco’s Modified Eagle’s Medium (DMEM) supplemented with 10% fetal bovine serum (Gibco), 4.5 g/L glucose, 4 mM glutamine, penicillin (100 units/mL), and streptomycin (100 μg/mL) in a humidified atmosphere in a 5% CO2 incubator. The cells were treated with 10, 25, 50 μM natural products in the presence of 1 μg/mL LPS (lipopolysaccharide, Sigma-Aldrich) for 20 h. The concentration of NO in culture supernatants was determined as nitrite, a major stable product of NO, by a Griess reagent assay, and the cell viabilities were determined using the MTT assay as described previously.

RAW 264.7 cells = assay: Cell viability, MTT assay; conditions: RAW 264.7, MTT assay, with 1 μg/mL LPS, 20 h; mean ± S.E.M.
Protocol: as §1, §2

[2] = system: iNOS gene (mRNA expression); assay: RT-PCR of iNOS mRNA expression after LPS treatment
Protocol: as §1
The ImProm-II Reverse Transcription System (Promega) was used to take 1 μg of the extracted total RNA, to which was added 1 μL of Oligo(dT)15 Primer, and other supplements with DEPS water. At this time, the total volume was 5 μL. The reaction was immediately placed on ice for at least 5 min, and then 5 × buffer 4 μL, MgCl2 (25 mM) 1.2 μL, dNTP Mix (10 mM) 1 μL, RNasin Ribonuclease Inhibitor 0.5 μL, ImProm-II reverse transcriptase 1 μL and DEPC H2O 6.8 μL was added; the cDNA product was obtained after the reactions of 25 °C, 5 min; 42 °C, 1 h; and 70 °C, 15 min. At the same time, a negative control group was made without reverse transcriptase to confirm whether there was DNA contamination. The obtained cDNA product was then amplified by a PCR reaction to amplify the predicted fragment.
Using the ABI PRISM 7700 Sequence Detection System, the cDNA product was assayed for iNOS, TNF-α, IL-6 and β-actin (internal standard) in a total reaction volume of 20 μL, including 2 × IQ2 SYBR Green Fast qPCR Master Mix (2X) 10 μL, 10 μM of 5′ and 3′ primers 1 μL each. The cDNA template 1 μL reaction conditions were 95 °C, 2 min, 1 cycle; 95 °C, 5 s; and 60 °C, 30 s, 40 cycles. The primers of the PCR reaction were: sense strand iNOS, 5′-GGAGTGACGGCAAACATGACT-3′; anti-sense strand iNOS, 5′-TCGATGCACAACTGGGTGAAC-3′; sense strand IL-6, 5′-CAGAGTCCTTCAGAGAGATACAG-3′; anti-sense strand IL-6, 5′-GATGAATTGGATGGTCTTGGTCC-3′; sense strand TNF-α, 5′-CAGACCCTCACACTCAGATC-3′; anti-sense strand TNF-α, 5′-CTTTGAGATCCATGCCGTTG-3′; sense strand β-actin, 5′-GGCTGTATTCCCCTCCATCG-3′; and anti-sense strand β-actin, 5′-CCAGTTGGTAACAATGCCATGT-3′.

[3] = system: LPS-induced NO production in RAW 264.7 murine macrophages; assay: LPS-induced iNOS-dependent NO production (nitrite, Griess reagent assay); conditions: for IC50: read-out: IC50, NO generation; for NO inhibitory activity compared to quercetin: ratio to the positive control quercetin, RAW 264.7, LPS; for NO inhibitory activity (in words): RAW 264.7, LPS-stimulated
Protocol: as §1, §2

[4] = RAW 264.7 murine macrophages, 1 μg/mL LPS, 20 h, mean ± S.E.M. of three independent experiments
[5] = Mus musculus, RAW264.7, 20 h, RAW 264.7 murine macrophages, 1 μg/mL LPS, 20 h, mean ± S.E.M. of three independent experiments

Row | IC50 ([3]; RAW 264.7 murine macrophages, 1 μg/mL LPS, 20 h, mean ± S.E.M. of three independent experiments, listed as 3) [µM] | IC50 [3, 4] [µM] | IC50 [3, 5] [µM] | IC50 ([3]; RAW 264.7 murine macrophages, 1 μg/mL LPS, 20 h, mean ± S.E.M. of three independent experiments, listed as 2) [µM] | Structure (SMILES) | viability at 20 h [1] [%] | Cell Viability (% Control) (RAW 264.7 cells) | Effect on LPS-increased iNOS mRNA expression [2] | NO inhibitory activity compared to quercetin [3] | NO inhibitory activity (in words) [3] | IC50 ([3]; Mus musculus, RAW264.7, 20 h) [µM]
1 | ≤ 27.2 | 5.15 ± 0.18 |  |  | C/C=C/c1cc2cc3c(c(=O)c-2co1)C(=O)OC3C (centres unmarked) [Acrocarpunicain C (3), (E)-1-methyl-7-(prop-1-en-1-yl)-3H-furo [3,4-g]isochromene-3,4(1H)-dione] | > 90 | 92.7 ± 4.1 | inhibited this increase in a concentration-dependent manner; also recorded: significantly inhibited | ~7 fold |  | 
2 |  |  | 36 ± 2.34 |  | O=c1c(O)c(-c2ccc(O)c(O)c2)oc2cc(O)cc(O)c12 [Quercetin, reference compound] |  | 95.9 ± 1.3 |  |  |  | 
3 |  |  | 41.7 ± 3.02 |  | CC=CC1=C(C)C(=O)C2(C)OC(=O)C(C(=O)CCCCC)C2C1 (centres unmarked) [Acrocarpunicain D (4), acrocarpunicain D] |  | 62.2 ± 3.2 |  |  | weak NO inhibitory activity | 
4 |  | 10.1 ± 0.47 |  | ≤ 27.2 | CC=CC1=CC2=CC3=C(C(=O)CCCCCCC)C(=O)OC3(C)C(=O)C2=CN1CC (centres unmarked) [Acrocarpunicain B (2), acrocarpunicain B] | > 90 | 95.5 ± 4.2 | inhibited this increase in a concentration-dependent manner; also recorded: significantly inhibited | ~3 fold |  | 
5 |  |  |  |  | CCC(CCC(C)C1CCC2C3CC=C4CC(OC(=O)C=Cc5cc(O)c(OC)c(O)c5)CCC4(C)C3CCC12C)C(C)C (stereo not drawn) [Acrocarpunicain E (5), β-sitosteryl trans-3-hydroxyisoferulate] |  |  |  |  | no NO inhibitory activity | 67.4 ± 4.09
6 |  | 27.2 ± 1.87 | ≤ 27.2 |  | COc1cc2ccc3c(c2cc1C(C)C)CCCC3(C)C [Acrocarpunicain F (6), 6-isopropyl-7-methoxy-1,1-dimethyl-1,2,3,4-tetrahydrophenanthrene] | > 90 | 91.3 ± 7.1 | inhibited this increase in a concentration-dependent manner; also recorded: significantly inhibited | ~1.2 fold |  | 
7 |  |  |  |  | CC=CC1=CC2=CC3=C(C(=O)CCCCC)C(=O)OC3(C)C(=O)C2=CN1CC (centres unmarked) [Acrocarpunicain A (1), acrocarpunicain A] | > 90 | 100 ± 15.5 | inhibited this increase in a concentration-dependent manner; also recorded: significantly inhibited | about 4 fold |  | 
